These results are taken from US20250302815A1, “PROTEIN TYROSINE PHOSPHATASE TARGETING LIGANDS” (CALICO LIFE SCIENCES LLC, priority 2021, published 2025).

Bounds are passed on as bounds.

For experiment [1], the target named is T1, PTPN2 (HiBIT-PTPN2 in 293T.109 cells) (Homo sapiens, UniProt P17706).
T1 construct: expressed in transfected cells; host or cells: 293T.109 (293T WT from ATCC)
T1 sequence (P17706 1-415): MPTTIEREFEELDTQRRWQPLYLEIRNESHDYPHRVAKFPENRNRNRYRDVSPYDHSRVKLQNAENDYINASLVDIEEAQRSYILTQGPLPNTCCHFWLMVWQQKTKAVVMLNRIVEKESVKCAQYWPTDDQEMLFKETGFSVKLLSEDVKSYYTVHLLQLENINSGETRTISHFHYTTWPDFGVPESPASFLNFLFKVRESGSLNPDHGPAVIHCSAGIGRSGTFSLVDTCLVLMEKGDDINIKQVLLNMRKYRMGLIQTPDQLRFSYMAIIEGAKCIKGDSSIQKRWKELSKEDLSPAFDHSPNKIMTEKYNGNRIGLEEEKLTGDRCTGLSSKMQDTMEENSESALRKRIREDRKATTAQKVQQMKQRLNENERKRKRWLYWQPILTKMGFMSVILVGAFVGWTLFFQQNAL
Put plainly: HiBiT Degradation 293T.109 PTPN2 (Nano-Glo HiBiT Lytic Assay). The settings on record: 24.0 hours. The class given is cell-based. The essentials:
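293T.109 cells with ectopic N-terminal HiBiT-tagged PTPN2 (5000/well) exposed to compounds for 24 h at 37 °C, 5% CO2; 11-point half-log titration from 10 μM top, duplicates. Remaining HiBiT-PTPN2 read as luminescence with Nano-Glo HiBiT lytic reagent, normalised to untreated cells (0%) and reagent-free wells.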

The target in experiment [2] is T2, PTPN2 (B16F10.4 cells) (Mus musculus, UniProt Q06180).
T2 construct: HiBiT; host or cells: B16F10.4
T2 sequence (Q06180 1-406): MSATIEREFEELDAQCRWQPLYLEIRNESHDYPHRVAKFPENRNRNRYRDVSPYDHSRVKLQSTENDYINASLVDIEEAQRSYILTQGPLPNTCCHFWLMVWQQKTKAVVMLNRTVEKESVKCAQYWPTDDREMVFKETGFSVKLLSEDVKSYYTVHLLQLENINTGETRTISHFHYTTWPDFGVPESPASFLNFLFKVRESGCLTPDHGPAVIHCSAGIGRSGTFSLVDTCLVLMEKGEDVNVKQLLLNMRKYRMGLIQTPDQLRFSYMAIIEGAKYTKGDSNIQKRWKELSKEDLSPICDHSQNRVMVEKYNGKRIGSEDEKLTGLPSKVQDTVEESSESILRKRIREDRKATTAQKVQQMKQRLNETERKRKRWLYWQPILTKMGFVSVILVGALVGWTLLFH
Put plainly: HiBiT Degradation B16F10.4 PTPN2. Type of experiment: cell-based. The settings on record: 24.0 hours.

Regarding `CC1(C)C[C@@H](Nc2cccc(-c3sc(C(=O)O)c(OCC(=O)O)c3Cl)c2)CCN1S(=O)(=O)Cc1cccc(NC(=O)OC2CN(C(=O)CNc3cccc4c3CN(C3CCC(=O)NC3=O)C4=O)C2)c1` (stereo partly drawn) [Example 96, 3-(carboxymethoxy)-4-chloro-5-[3-[[(4S)-1-[[3-[[1-[2-[[2-(2,6-dioxo-3-piperidyl)-1-oxo-isoindolin-4-yl]amino]acetyl]azetidin-3-yl]oxycarbonylamino]phenyl]methylsulfonyl]-2,2-dimethyl-4-piperidyl]amino]phenyl]thiophene-2-carboxylic acid], the 50% degradation concentration (DC50) lay within 50 to 200 nM in experiment [1] and 200 to 1000 nM in experiment [2].

For the molecule `Cn1c(=O)n(C2CCC(=O)NC2=O)c2ccc(C3CCN(C(=O)Nc4cc(CS(=O)(=O)N5CC[C@H](Nc6cccc(-c7sc(C(=O)O)c(OCC(=O)O)c7Cl)c6)CC5(C)C)ccc4F)CC3)cc21` (stereo partly drawn) [Example 119, 3-(carboxymethoxy)-4-chloro-5-[3-[[(4S)-1-[[3-[[4-[1-(2,6-dioxo-3-piperidyl)-3-methyl-2-oxo-benzimidazol-5-yl]piperidine-1-carbonyl]amino]-4-fluoro-phenyl]methylsulfonyl]-2,2-dimethyl-4-piperidyl]amino]phenyl]thiophene-2-carboxylic acid], the DC50 in experiment [1] and in experiment [2] was 50 to 200 nM in each case.

On to `CC1(C)C[C@@H](Nc2cccc(-c3sc(C(=O)O)c(OCC(=O)O)c3Cl)c2)CCN1S(=O)(=O)Cc1cccc(NC(=O)C2CCN(C(=O)CNc3ccc4c(c3)CN(C3CCC(=O)NC3=O)C4=O)CC2)c1` (stereo partly drawn) [Example 41, 3-(carboxymethoxy)-4-chloro-5-(3-(((4S)-1-((3-(1-((2-(2,6-dioxopiperidin-3-yl)-1-oxoisoindolin-5-yl)glycyl)piperidine-4-carboxamido)benzyl)sulfonyl)-2,2-dimethylpiperidin-4-yl)amino)phenyl)thiophene-2-carboxylic acid], for which the DC50 is 50 to 200 nM in experiment [1] and ≥ 1000 nM in experiment [2].

On to `Cn1c(=O)n(C2CCC(=O)NC2=O)c2ccc(C3CCN(C(=O)Nc4cccc(CS(=O)(=O)N5CC[C@H](Nc6cccc(-c7sc(C(=O)O)c(OCC(=O)O)c7Cl)c6)CC5(C)C)c4)CC3(F)F)cc21` (stereo partly drawn) [Example 147, 3-(carboxymethoxy)-4-chloro-5-[3-[[(4S)-1-[[3-[[4-[1-(2,6-dioxo-3-piperidyl)-3-methyl-2-oxo-benzimidazol-5-yl]-3,3-difluoro-piperidine-1-carbonyl]amino]phenyl]methylsulfonyl]-2,2-dimethyl-4-piperidyl]amino]phenyl]thiophene-2-carboxylic acid], for which the DC50 in experiment [1] and in experiment [2] was < 50 nM throughout.

`CN(C(=O)C1CCN(C(=O)CNc2cccc3c2CN(C2CCC(=O)NC2=O)C3=O)CC1)c1cccc(CS(=O)(=O)N2CC[C@@H](Nc3cccc(-c4sc(C(=O)O)c(OCC(=O)O)c4Cl)c3)CC2(C)C)c1` (stereo partly drawn) [Example 66, 3-(carboxymethoxy)-4-chloro-5-(3-(((4R)-1-((3-(1-((2-(2,6-dioxopiperidin-3-yl)-1-oxoisoindolin-4-yl)glycyl)-N-methylpiperidine-4-carboxamido)benzyl)sulfonyl)-2,2-dimethylpiperidin-4-yl)amino)phenyl)thiophene-2-carboxylic acid]: the DC50 in experiment [1] was 200 to 1000 nM; in experiment [2], ≥ 1000 nM.

Consider `CN(C(=O)C1CCN(C(=O)CNc2cccc3c2CN(C2CCC(=O)NC2=O)C3=O)CC1)c1cccc(CS(=O)(=O)N2CC[C@H](Nc3cccc(-c4sc(C(=O)O)c(OCC(=O)O)c4Cl)c3)CC2(C)C)c1` (stereo partly drawn) [Example 67, 3-(carboxymethoxy)-4-chloro-5-(3-(((4S)-1-((3-(1-((2-(2,6-dioxopiperidin-3-yl)-1-oxoisoindolin-4-yl)glycyl)-N-methylpiperidine-4-carboxamido)benzyl)sulfonyl)-2,2-dimethylpiperidin-4-yl)amino)phenyl)thiophene-2-carboxylic acid], for which the results for the DC50 in experiment [1] and in experiment [2] were 200 to 1000 nM and ≥ 1000 nM, respectively.

As for `CC1(C)C[C@@H](Nc2cccc(-c3sc(C(=O)O)c(OCC(=O)O)c3Cl)c2)CCN1S(=O)(=O)Cc1cccc(NC(=O)N2CCCN(c3ccc4c5c(cccc35)C(=O)N4C3CCC(=O)NC3=O)CC2)c1` (stereo partly drawn) [Example 163, 3-(carboxymethoxy)-4-chloro-5-(3-(((4S)-1-((3-(4-(1-(2,6-dioxopiperidin-3-yl)-2-oxo-1,2-dihydrobenzo[cd]indol-6-yl)-1,4-diazepane-1-carboxamido)benzyl)sulfonyl)-2,2-dimethylpiperidin-4-yl)amino)phenyl)thiophene-2-carboxylic acid], the DC50 in experiment [1] and in experiment [2] was 50 to 200 nM each time.

With `CC1(C)C[C@@H](Nc2cccc(-c3sc(C(=O)O)c(OCC(=O)O)c3Cl)c2)CCN1S(=O)(=O)Cc1cccc(NC(=O)C2CCN(C(=O)COc3cccc4c3C(=O)N(C3CCC(=O)NC3=O)C4=O)CC2)c1` (stereo partly drawn) [Example 58, 3-(carboxymethoxy)-4-chloro-5-[3-[[(4S)-1-[3-[[1-[2-[[2-(2,6-dioxo-3-piperidyl)-1,3-dioxo-isoindolin-4-yl]oxyacetyl]piperidine-4-carbonyl]amino]phenyl]methylsulfonyl]-2,2-dimethyl-4-piperidyl]amino]phenyl]thiophene-2-carboxylic acid], the DC50 was 200 to 1000 nM in experiment [1] and ≥ 1000 nM in experiment [2].

With `Cn1c(=O)n(C2CCC(=O)NC2=O)c2ccc(N3CCC(O)(CC(=O)Nc4cccc(CS(=O)(=O)N5CC[C@@H](Nc6cccc(-c7sc(C(=O)O)c(OCC(=O)O)c7Cl)c6)CC5(C)C)c4)CC3)cc21` (stereo partly drawn) [Example 179, 3-(carboxymethoxy)-4-chloro-5-(3-(((4R)-1-((3-(2-(1-(1-(2,6-dioxopiperidin-3-yl)-3-methyl-2-oxo-2,3-dihydro-1H-benzo[d]imidazol-5-yl)-4-hydroxypiperidin-4-yl)acetamido)benzyl)sulfonyl)-2,2-dimethylpiperidin-4-yl)amino)phenyl)thiophene-2-carboxylic acid], the DC50 in experiment [1] and in experiment [2] was 200 to 1000 nM in each case.

Regarding `CC1(C)C[C@@H](Nc2cccc(-c3sc(C(=O)O)c(OCC(=O)O)c3Cl)c2)CCN1S(=O)(=O)Cc1ccc(F)c(NC(=O)[C@H]2[C@@H]3CN(C(=O)CNc4cccc5c4CN(C4CCC(=O)NC4=O)C5=O)C[C@@H]32)c1` (stereo partly drawn) [Example 110, 3-(carboxymethoxy)-4-chloro-5-(3-(((4S)-1-((3-((1R,5S,6r)-3-((2-(2,6-dioxopiperidin-3-yl)-1-oxoisoindolin-4-yl)glycyl)-3-azabicyclo[3.1.0]hexane-6-carboxamido)-4-fluorobenzyl)sulfonyl)-2,2-dimethylpiperidin-4-yl)amino)phenyl)thiophene-2-carboxylic acid], the DC50 in experiment [1] lay within 50 to 200 nM; in experiment [2], 200 to 1000 nM.

`O=C(O)COc1c(C(=O)O)sc(-c2cccc(NC3CCN(S(=O)(=O)Cc4cccc(NC(=O)CCN5CCC(Nc6cccc7c6CN(C6CCC(=O)NC6=O)C7=O)CC5)c4)CC3)c2)c1Cl` (centres unmarked) [Example 50, 3-(carboxymethoxy)-4-chloro-5-[3-[[1-[[3-[3-[4-[[2-(2,6-dioxo-3-piperidyl)-1-oxo-isoindolin-4-yl]amino]-1-piperidyl]propanoylamino]phenyl]methylsulfonyl]-4-piperidyl]amino]phenyl]thiophene-2-carboxylic acid]: the DC50 was < 50 nM in experiment [1] and ≥ 1000 nM in experiment [2].

On to `Cn1nc(C2CCC(=O)NC2=O)c2ccc(C3CCN(C(=O)Nc4cccc(CS(=O)(=O)N5CC[C@@H](Nc6cccc(-c7sc(C(=O)O)c(OCC(=O)O)c7Cl)c6)CC5(C)C)c4)CC3(F)F)cc21` (stereo partly drawn) [Example 185, 3-(carboxymethoxy)-4-chloro-5-(3-(((4R)-1-((3-(4-(3-(2,6-dioxopiperidin-3-yl)-1-methyl-1H-indazol-6-yl)-3,3-difluoropiperidine-1-carboxamido)benzyl)sulfonyl)-2,2-dimethylpiperidin-4-yl)amino)phenyl)thiophene-2-carboxylic acid], for which the DC50 in experiment [1] was 200 to 1000 nM; in experiment [2], < 50 nM.

For the molecule `C[C@@H]1CN(C(=O)Nc2cccc(CS(=O)(=O)N3CC[C@H](Nc4cccc(-c5sc(C(=O)O)c(OCC(=O)O)c5Cl)c4)CC3(C)C)c2)CCN1c1ccc2c(c1)n(C)c(=O)n2C1CCC(=O)NC1=O` (stereo partly drawn) [Example 209, 3-(carboxymethoxy)-4-chloro-5-[3-[[(4S)-1-[[3-[[(3R)-4-[1-(2,6-dioxo-3-piperidyl)-3-methyl-2-oxo-benzimidazol-5-yl]-3-methyl-piperazine-1-carbonyl]amino]phenyl]methylsulfonyl]-2,2-dimethyl-4-piperidyl]amino]phenyl]thiophene-2-carboxylic acid], the 50% degradation concentration (DC50) in experiment [1] and in experiment [2] was 50 to 200 nM each time.
